# Assay results as given in patent US20080318943A1, “Compounds and Uses Thereof - 848” (ASTRAZENECA AB, priority 2007, published 2008).
# What was measured:
# [1] = target: T1, GABAA2 receptors (α2, β3, γ2 receptor subunits transfected into Sf9 cells) (Homo sapiens, UniProt P18507+P47869); test: GABAA2 Binding Method ([3H]-Flunitrazepam displacement); details: [3H]-Flunitrazepam ~2 nM, α2β3γ2 Sf9 membranes, 1 hr at 4° C.
# T1 construct: host or cells: Sf9 cells (membranes)
# In short: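 Displacement of [3H]-flunitrazepam (~2 nM in assay) from recombinant human α2β3γ2 receptors in Sf9 membranes; 1 h incubation at 4 °C, harvest by filtration. Values reported as percent of control, IC50 and Ki.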
# [2] = target: T2, GABAA receptor α2β3γ2 (Homo sapiens, UniProt P18507+P47869); test: Two-electrode voltage-clamp potentiation of GABA EC10 current in Xenopus oocytes, GABAA2; format: cell-based; details: percentage potentiation of GABA EC10 current divided by that of diazepam
# T2 construct: expressed in transfected cells; host or cells: Xenopus laevis oocytes injected with cRNA
# In short: (§1)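 Human GABAA receptors expressed in Xenopus oocytes by cRNA injection (α:β:γ molar ratio ~1:1:10 for α1β2γ2, 1:1:1 for α2β3γ2), recorded 2-10 days later by two-electrode voltage clamp at −60 mV in ND-96, pH 7.5. Modulator preapplied 30 s before GABA at per-oocyte EC10. Peak-current percent potentiation over GABA alone, normalised to diazepam.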
# [3] = target: T3, GABAA receptor α1β2γ2 (Homo sapiens, UniProt P14867+P18507); test: Two-electrode voltage-clamp potentiation of GABA EC10 current in Xenopus oocytes, GABAA1; format: cell-based; details: percentage potentiation of GABA EC10 current divided by that of diazepam
# T3 construct: expressed in transfected cells; host or cells: Xenopus laevis oocytes injected with cRNA
# In short: as §1
# T2 sequence (P47869 29-451): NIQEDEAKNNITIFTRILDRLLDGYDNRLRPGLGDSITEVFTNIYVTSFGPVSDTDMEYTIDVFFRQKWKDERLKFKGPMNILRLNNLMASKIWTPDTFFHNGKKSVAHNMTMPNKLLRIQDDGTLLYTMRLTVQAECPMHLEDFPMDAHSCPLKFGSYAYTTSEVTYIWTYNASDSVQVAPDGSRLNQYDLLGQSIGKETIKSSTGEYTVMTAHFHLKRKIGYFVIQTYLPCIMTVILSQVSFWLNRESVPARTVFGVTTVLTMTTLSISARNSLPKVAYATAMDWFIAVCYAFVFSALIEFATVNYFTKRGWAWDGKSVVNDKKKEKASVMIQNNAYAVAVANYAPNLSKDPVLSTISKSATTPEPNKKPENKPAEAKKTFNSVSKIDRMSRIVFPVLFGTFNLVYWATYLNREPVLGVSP
# T2 sequence (P28472 26-473 partner): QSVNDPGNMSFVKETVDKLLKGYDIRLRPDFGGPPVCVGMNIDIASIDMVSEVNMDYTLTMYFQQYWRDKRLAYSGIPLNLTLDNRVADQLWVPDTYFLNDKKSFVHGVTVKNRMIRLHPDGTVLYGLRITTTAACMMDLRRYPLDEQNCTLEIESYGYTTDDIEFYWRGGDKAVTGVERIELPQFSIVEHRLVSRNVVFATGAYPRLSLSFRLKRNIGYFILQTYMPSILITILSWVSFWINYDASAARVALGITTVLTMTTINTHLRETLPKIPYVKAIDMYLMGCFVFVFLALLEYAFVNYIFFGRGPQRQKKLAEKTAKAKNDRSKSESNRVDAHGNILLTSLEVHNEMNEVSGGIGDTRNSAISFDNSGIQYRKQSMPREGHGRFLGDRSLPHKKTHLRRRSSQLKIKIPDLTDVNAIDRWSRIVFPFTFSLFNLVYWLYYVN
# T2 sequence (P18507 40-475): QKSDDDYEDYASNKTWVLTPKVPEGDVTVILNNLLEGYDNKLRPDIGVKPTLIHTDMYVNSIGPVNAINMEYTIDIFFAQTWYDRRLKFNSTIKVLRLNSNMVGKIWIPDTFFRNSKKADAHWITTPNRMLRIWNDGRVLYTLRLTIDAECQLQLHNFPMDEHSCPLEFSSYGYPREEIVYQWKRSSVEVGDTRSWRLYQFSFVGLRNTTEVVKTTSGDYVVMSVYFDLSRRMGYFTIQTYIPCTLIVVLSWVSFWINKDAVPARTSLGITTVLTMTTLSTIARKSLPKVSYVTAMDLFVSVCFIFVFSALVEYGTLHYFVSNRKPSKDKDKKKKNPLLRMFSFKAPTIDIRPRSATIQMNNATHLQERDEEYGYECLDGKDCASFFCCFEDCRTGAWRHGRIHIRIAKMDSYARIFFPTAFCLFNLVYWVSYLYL
# T1 sequence (P47869 29-451): as the sequence (P47869 29-451) above
# T1 sequence (P28472 26-473 partner): as the sequence (P28472 26-473 partner) above
# T1 sequence (P18507 40-475): as the sequence (P18507 40-475) above
# T3 sequence (P14867 28-456): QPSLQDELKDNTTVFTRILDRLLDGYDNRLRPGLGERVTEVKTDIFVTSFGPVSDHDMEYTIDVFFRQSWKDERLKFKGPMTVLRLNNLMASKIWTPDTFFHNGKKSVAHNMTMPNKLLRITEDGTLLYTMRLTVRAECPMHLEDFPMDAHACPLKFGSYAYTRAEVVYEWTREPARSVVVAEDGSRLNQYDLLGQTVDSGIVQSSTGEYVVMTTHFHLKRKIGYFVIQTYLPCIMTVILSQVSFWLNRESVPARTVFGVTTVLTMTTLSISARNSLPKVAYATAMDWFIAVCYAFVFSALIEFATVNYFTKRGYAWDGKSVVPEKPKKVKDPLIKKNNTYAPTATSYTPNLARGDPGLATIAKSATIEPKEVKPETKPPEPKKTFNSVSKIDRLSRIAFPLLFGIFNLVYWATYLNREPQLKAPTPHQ
# T3 sequence (P47870 25-512 partner limits assumed): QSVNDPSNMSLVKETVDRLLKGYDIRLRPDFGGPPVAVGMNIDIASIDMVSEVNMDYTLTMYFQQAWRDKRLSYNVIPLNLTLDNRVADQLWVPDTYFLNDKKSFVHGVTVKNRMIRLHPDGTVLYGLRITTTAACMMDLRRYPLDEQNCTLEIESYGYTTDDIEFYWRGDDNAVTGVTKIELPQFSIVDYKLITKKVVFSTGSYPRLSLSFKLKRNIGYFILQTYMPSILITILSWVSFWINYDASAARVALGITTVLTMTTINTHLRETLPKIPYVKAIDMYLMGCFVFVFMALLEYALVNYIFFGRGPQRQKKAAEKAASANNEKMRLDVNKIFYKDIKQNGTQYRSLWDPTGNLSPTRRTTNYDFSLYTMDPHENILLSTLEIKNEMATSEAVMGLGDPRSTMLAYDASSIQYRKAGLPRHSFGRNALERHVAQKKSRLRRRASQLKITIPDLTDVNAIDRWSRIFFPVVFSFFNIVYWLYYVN
# T3 sequence (P18507 40-475): as the sequence (P18507 40-475) above
SMILES,Ki [1],Relative Potentiation for GABAA2 [2],Relative Potentiation for GABAA1 [3]
"COc1ncc(-c2cccc3c(N)c4c(nc23)CN(C2CCC2)C4=O)cc1C [9-Amino-2-cyclobutyl-5-(6-methoxy-5-methylpyridin-3-yl)-2,3-dihydropyrrolo[3,4-b]quinolin-1-one]",4.61 nM,0.16,0.029
"COc1cccc(-c2cccc3c(N)c4c(nc23)CN(C2CCC2)C4=O)n1 [9-Amino-2-cyclobutyl-5-(6-methoxypyridin-2-yl)-2,3-dihydropyrrolo[3,4-b]quinolin-1-one]",1.48 nM,0.16,0.085
"COc1ccc(-c2cccc3c(N)c4c(nc23)CN(C2CCC2)C4=O)cn1 [9-Amino-2-cyclobutyl-5-(6-methoxypyridin-3-yl)-2,3-dihydropyrrolo[3,4-b]quinolin-1-one]",6.48 nM,0.14,−0.035
"Cc1ccc(-c2cccc3c(N)c4c(nc23)CN(C2CCC2)C4=O)cn1 [9-Amino-2-cyclobutyl-5-(6-methylpyridin-3-yl)-2,3-dihydropyrrolo[3,4-b]quinolin-1-one]",4.44 nM,0.21,−0.13
"Nc1c2c(nc3c(-c4ccc(N5CCOCC5)nc4)cccc13)CN(C1CCC1)C2=O [9-Amino-2-cyclobutyl-5-(6-morpholin-4-yl-pyridin-3-yl)-2,3-dihydropyrrolo[3,4-b]quinolin-1-one]",8.81 nM,0.12,−0.025
"Nc1c2c(nc3c(-c4cnccn4)cccc13)CN(C1CCC1)C2=O [9-Amino-2-cyclobutyl-5-pyrazin-2-yl-2,3-dihydropyrrolo[3,4-b]quinolin-1-one]",11.3 nM,0.11,−0.066
"Nc1c2c(nc3c(-c4ccccn4)cccc13)CN(C1CCC1)C2=O [9-Amino-2-cyclobutyl-5-pyridin-2-yl-2,3-dihydropyrrolo[3,4-b]quinolin-1-one]",4.66 nM,0.12,0.061
"Nc1c2c(nc3c(-c4ccncc4)cccc13)CN(C1CCC1)C2=O [9-Amino-2-cyclobutyl-5-pyridin-4-yl-2,3-dihydropyrrolo[3,4-b]quinolin-1-one]",1.35 nM,0.17,0.079
"Nc1c2c(nc3c(-c4ncccn4)cccc13)CN(C1CCC1)C2=O [9-Amino-2-cyclobutyl-5-pyrimidin-2-yl-2,3-dihydropyrrolo[3,4-b]quinolin-1-one]",8.3 nM,0.12,0.013
"COc1cccc(-c2c(F)ccc3c(N)c4c(nc23)CN(C2CCC2)C4=O)c1F [9-Amino-2-cyclobutyl-6-fluoro-5-(2-fluoro-3-methoxyphenyl)-2,3-dihydropyrrolo[3,4-b]quinolin-1-one]",0.122 nM,0.18,0.028
"COc1ccc(F)c(-c2c(F)ccc3c(N)c4c(nc23)CN(C2CCC2)C4=O)c1 [9-Amino-2-cyclobutyl-6-fluoro-5-(2-fluoro-5-methoxyphenyl)-2,3-dihydropyrrolo[3,4-b]quinolin-1-one]",0.333 nM,0.26,0.025
"Nc1c2c(nc3c(-c4cccnc4F)c(F)ccc13)CN(C1CCC1)C2=O [9-Amino-2-cyclobutyl-6-fluoro-5-(2-fluoropyridin-3-yl)-2,3-dihydropyrrolo[3,4-b]quinolin-1-one]",0.246 nM,0.19,0.018
"COc1ccccc1-c1c(F)ccc2c(N)c3c(nc12)CN(C1CCC1)C3=O [9-Amino-2-cyclobutyl-6-fluoro-5-(2-methoxyphenyl)-2,3-dihydropyrrolo[3,4-b]quinolin-1-one]",1.56 nM,0.2,−0.047
"COc1ncccc1-c1c(F)ccc2c(N)c3c(nc12)CN(C1CCC1)C3=O [9-Amino-2-cyclobutyl-6-fluoro-5-(2-methoxypyridin-3-yl)-2,3-dihydropyrrolo[3,4-b]quinolin-1-one]",0.847 nM,0.28,−0.01
"C=Cc1ccccc1-c1c(F)ccc2c(N)c3c(nc12)CN(C1CCC1)C3=O [9-Amino-2-cyclobutyl-6-fluoro-5-(2-vinylphenyl)-2,3-dihydropyrrolo[3,4-b]quinolin-1-one]",1.68 nM,0.11,0.11
"COc1cnccc1-c1c(F)ccc2c(N)c3c(nc12)CN(C1CCC1)C3=O [9-Amino-2-cyclobutyl-6-fluoro-5-(3-methoxypyridin-4-yl)-2,3-dihydropyrrolo[3,4-b]quinolin-1-one]",0.185 nM,0.27,0.02
"COc1cc(F)ccc1-c1c(F)ccc2c(N)c3c(nc12)CN(C1CCC1)C3=O [9-Amino-2-cyclobutyl-6-fluoro-5-(4-fluoro-2-methoxyphenyl)-2,3-dihydropyrrolo[3,4-b]quinolin-1-one]",1.2 nM,0.15,0.0067
"COc1ccc(F)cc1-c1c(F)ccc2c(N)c3c(nc12)CN(C1CCC1)C3=O [9-Amino-2-cyclobutyl-6-fluoro-5-(5-fluoro-2-methoxyphenyl)-2,3-dihydropyrrolo[3,4-b]quinolin-1-one]",0.333 nM,0.26,0.11
"COc1ccc(-c2c(F)ccc3c(N)c4c(nc23)CN(C2CCC2)C4=O)c(C)n1 [9-Amino-2-cyclobutyl-6-fluoro-5-(6-methoxy-2-methylpyridin-3-yl)-2,3-dihydropyrrolo[3,4-b]quinolin-1-one]",1.14 nM,0.19,0.042
"COc1cc(C)c(-c2c(F)ccc3c(N)c4c(nc23)CN(C2CCC2)C4=O)cn1 [9-Amino-2-cyclobutyl-6-fluoro-5-(6-methoxy-4-methylpyridin-3-yl)-2,3-dihydropyrrolo[3,4-b]quinolin-1-one]",3.04 nM,0.17,0.065
"COc1ccc(-c2c(F)ccc3c(N)c4c(nc23)CN(C2CCC2)C4=O)cn1 [9-Amino-2-cyclobutyl-6-fluoro-5-(6-methoxypyridin-3-yl)-2,3-dihydropyrrolo[3,4-b]quinolin-1-one]",2.63 nM,0.19,−0.04
"Cc1ccc(-c2c(F)ccc3c(N)c4c(nc23)CN(C2CCC2)C4=O)cn1 [9-Amino-2-cyclobutyl-6-fluoro-5-(6-methylpyridin-3-yl)-2,3-dihydropyrrolo[3,4-b]quinolin-1-one]",0.305 nM,0.15,0
"Nc1c2c(nc3c(-c4cncnc4)c(F)ccc13)CN(C1CCC1)C2=O [9-Amino-2-cyclobutyl-6-fluoro-5-pyrimidin-5-yl-2,3-dihydropyrrolo[3,4-b]quinolin-1-one]",1.46 nM,0.09,−0.053
"COc1cccc(F)c1-c1cccc2c(N)c3c(nc12)CN(C1CCCC1)C3=O [9-Amino-2-cyclopentyl-5-(2-fluoro-6-methoxyphenyl)-2,3-dihydropyrrolo[3,4-b]quinolin-1-one]",3.01 nM,0.3,−0.01
"Nc1c2c(nc3c(-c4cccc(F)c4F)cccc13)CN(C1CC1)C2=O [9-Amino-2-cyclopropyl-5-(2,3-difluorophenyl)-2,3-dihydropyrrolo[3,4-b]quinolin-1-one]",17 nM,0.16,0.033
"Nc1c2c(nc3c(-c4ccc(F)cc4F)cccc13)CN(C1CC1)C2=O [9-Amino-2-cyclopropyl-5-(2,4-difluorophenyl)-2,3-dihydropyrrolo[3,4-b]quinolin-1-one]",20 nM,0.14,0.018
